Source: patent publication US9657305B2, “Synthesis of sialic acid in plants” (Medicago, Inc., priority 2006, dated 2017)

Columns and labels:
tobacco BY2 cells [1] = test: Toxicity of Neu5Ac on tobacco BY2 cells (cell viability, propidium iodide and fluorescein diacetate); assay type: cell-based, Nicotiana tabacum; conditions: 10 mM Neu5Ac, 48 h period
[2] = Synthase activity of recombinant Neu5Ac lyase (formation of Neu5Ac from D-ManNAc and pyruvate, GC-EI MS); assay type: biochemical; conditions: pH 7, […]° C.
Method: Soluble enzyme activities were assayed by incubating cell extracts with PEP 4 mM, NADH 4 mM, NaHCO3 20 mM and DTE 10 mM. Oxydation of NADH was measured by a diminution of absorbance at 340 nm after 10 min. […] Cells extracts were incubated 2 h at 37° C. in Solution B (100 mM Tris-HCl buffer, pH=7.4 and 10 mM MgCl2) containing proteinase inhibitors (pepstatine 1 μg·mL^−1, E64 1 μg·mL^1 and PMSF 1 mM) and Neu5Ac 40 mM. […] Cells extracts were incubated 2 h at 37° C. in Solution B (100 mM […], pH=7.4 and 10 mM MgCl2) containing proteinase inhibitors (pepstatine 1 μg·mL^−1, E64 1 μg·mL^1 and PMSF 1 mM) and ManNAc 20 mM and pyruvate 40 mM. Synthase activity of NeuB2 was assayed by measuring the formation of Neu5Ac after incubating transformants cells extracts with ManNAc and PEP. Cells extracts were incubated 2 h at 37° C. in Solution B (100 mM Tris-HCl buffer, pH=7.4 and 10 mM MgCl2) containing proteinase inhibitors (pepstatine 1 μg·mL^−1, E64 1 μg·mL^−1 and PMSF 1 mM) and ManNAc 10 mM and PEP 10 mM. […]
For the enzymatic assays, the reaction mixtures were first submitted to a purification step on C18 Seppack cartridges. […] The quantification of sugar was done by integration of peaks and determination of the corresponding molar values using response factors established with standard monosaccharides. […]

[3] = Stability of the recombinant enzymes expressed in the plant cytosol; conditions: tobacco BY2 cells, alfalfa plants or transient expression
Description: The synthesis of Neu5Ac in presence of pyruvate and ManNAc was also observed.

tobacco BY2 cells [4] = test: In planta activity of Neu5Ac lyase: feeding transformed tobacco BY2 cells with Neu5Ac, GC of cytosolic monosaccharides; assay type: cell-based, Nicotiana tabacum; conditions: BY2 cells fed 10 mM Neu5Ac, 48 h
Method: After 2 d, BY2 cells were washed with BY2 medium without Neu5Ac or ManNAc and harvested. The cells were heated at 70° C. for 15 min in 70% ethanol to inactivate enzymes and then ground in a potter homogenizer. The homogenate was washed two times with 70% ethanol at 70° C. The remaining pellet and the supernatant were considered as representatives of the cell walls and the cytosolic free monosaccharides respectively. Monosaccharides of the supernatant fraction were then analysed by gas chromatography
The formation of D-ManNAc was determined by analysing cytosolic monosaccharides by GC after a 48 h period at temperature ranging from 23° C. to 37° C.

Compound	toxicity of Neu5Ac on tobacco BY2 cells (cell viability) (tobacco BY2 cells [1])	ability to synthesise Neu5Ac [2]	degradation of recombinant protein in the cytosol [3]	increase in D-ManNAc content at 37° C. compared to 23° C. (tobacco BY2 cells [4])
CC(=O)N[C@H]1[C@H]([C@H](O)[C@H](O)CO)OC(O)(C(=O)O)C[C@@H]1O (stereo partly shown) [Neu5Ac, N-acetyl neuraminic acid]	no toxic effects were observed	–	–	–
Neu5Ac lyase: Neu5Ac lyase from Escherichia coli K1 (accession number D00067) expressed in tobacco BY2 cells	–	able to synthesise Neu5Ac	No degradation	25 fold
